Patent publication US20240327374A1, “LENALIDOMIDE PROCESS” (priority 2023, published 2024)

Columns and labels:
Format in all cases: physicochemical
[1] = Six months stability of crystalline Form SRA: assay / purity by HPLC
Description: (§1) Inventors of the present application performed six months stability for the novel crystalline Form SRA according to the following temperature and relative humidity conditions: […]

[2] = Six months stability of crystalline Form SRA: moisture content by KF method
Description: as §1

[3] = Six months stability of crystalline Form SRA: comparative XRPD pattern (polymorphic stability); details: after 6 months under 25° C.±2/65±5% RH and 40° C.±2/75±5% RH
Description: as §1

Assay (by HPLC; on anhydrous basis) Between 98.0 to 102.0% w/w ([1]; A = 25° C.±2/65±5% RH, 1M): 99.50 % w/w | Assay (by HPLC; on anhydrous basis) Between 98.0 to 102.0% w/w ([1]; A = 25° C.±2/65±5% RH, 2M): 99.41 % w/w | Assay (by HPLC; on anhydrous basis) Between 98.0 to 102.0% w/w ([1]; A = 25° C.±2/65±5% RH, 3M): 99.55 % w/w | Assay (by HPLC; on anhydrous basis) Between 98.0 to 102.0% w/w ([1]; A = 25° C.±2/65±5% RH, 6M): 99.47 % w/w | Assay (by HPLC; on anhydrous basis) Between 98.0 to 102.0% w/w ([1]; A = 25° C.±2/65±5% RH, Initial): 100.38 % w/w | Assay (by HPLC; on anhydrous basis) Between 98.0 to 102.0% w/w ([1]; B = 40° C.±2/75±5% RH, 1M): 99.77 % w/w | Assay (by HPLC; on anhydrous basis) Between 98.0 to 102.0% w/w ([1]; B = 40° C.±2/75±5% RH, 2M): 99.64 % w/w | Assay (by HPLC; on anhydrous basis) Between 98.0 to 102.0% w/w ([1]; B = 40° C.±2/75±5% RH, 3M): 100.02 % w/w | Assay (by HPLC; on anhydrous basis) Between 98.0 to 102.0% w/w ([1]; B = 40° C.±2/75±5% RH, 6M): 99.47 % w/w | Assay (by HPLC; on anhydrous basis) Between 98.0 to 102.0% w/w ([1]; B = 40° C.±2/75±5% RH, Initial): 100.38 % w/w | HPLC purity retained in the stability study ([1]; six months stability study): exceeding 99.9 % w/w by HPLC | Moisture Content (by KF method) Not more than 0.5% w/w ([2]; A = 25° C.±2/65±5% RH, 1M): 0.22 % w/w | Moisture Content (by KF method) Not more than 0.5% w/w ([2]; A = 25° C.±2/65±5% RH, 2M): 0.22 % w/w | Moisture Content (by KF method) Not more than 0.5% w/w ([2]; A = 25° C.±2/65±5% RH, 3M): 0.23 % w/w | Moisture Content (by KF method) Not more than 0.5% w/w ([2]; A = 25° C.±2/65±5% RH, 6M): 0.23 % w/w | Moisture Content (by KF method) Not more than 0.5% w/w ([2]; A = 25° C.±2/65±5% RH, Initial): 0.23 % w/w | Moisture Content (by KF method) Not more than 0.5% w/w ([2]; B = 40° C.±2/75±5% RH, 1M): 0.21 % w/w | Moisture Content (by KF method) Not more than 0.5% w/w ([2]; B = 40° C.±2/75±5% RH, 2M): 0.22 % w/w | Moisture Content (by KF method) Not more than 0.5% w/w ([2]; B = 40° C.±2/75±5% RH, 3M): 0.22 % w/w | Moisture Content (by KF method) Not more than 0.5% w/w ([2]; B = 40° C.±2/75±5% RH, 6M): 0.22 % w/w | Moisture Content (by KF method) Not more than 0.5% w/w ([2]; B = 40° C.±2/75±5% RH, Initial): 0.23 % w/w | Crystalline form by comparative XRPD, initial stage vs after stability [3]: crystalline form remains unchanged
Compound: Nc1cccc2c1CN(C1CCC(=O)NC1=O)C2=O (stereo not shown) [Form SRA, 3-(7-amino-3-oxo-1H-isoindol-2-yl) piperidine-2,6-dione]
